Key:
[1] = system: men demonstrating positive symptoms of diabetic neuropathy; assay: Clinical trial of sildenafil versus placebo (crossover) with pain assessments (PDI, VAS Pain Score, Verbal Evaluation of Pain Relief); format: in vivo, human; conditions: 50 mg every night for 10 days, pain assessed by PDI, VAS Pain Score and Verbal Evaluation of Pain Relief
Experimental: The study was conducted using sidenafil, however it will be appreciated that the study may be conducted with other cGMP PDE5 inhibitors, for example one or more of the preferred cGMP PDE5 inhibitors listed hereinabove.
The patients then underwent a 7-day treatment-free phase in order to establish baseline data, including a series of pain assessments comprising determining the Pain Disability Index (PDI) (adapted from Tait et al 1990), the Visual Analogue Scale (VAS) Pain Score, and the Verbal Evaluation of Pain Relief. They were then treated with either sildenafil (50 mg) or placebo every night for 10 days and immediately after this period the patient's degree of pain was reassessed. A washout period of 10 days followed where the patients received no treatment. […] Immediately after this period the patient's degree of pain was assessed.
Pain Disability Index (PDI) is determined by patient questionnaire, and measures the overall impact of pain (on a scale of 0 to 10) associated with normal daily activities, (i.e. family/home responsibilities, recreation, social activity, occupation, self-care, sleeping). […]
Visual Analogue Scale (VAS) Pain Score is determined by the patient indicating on a continuous line from 0 (=no pain) to 100 (=pain as bad as it could be) the average level of a pain experienced during the assessment period. […]

[2] = system: patients with diabetic polyneuropathy; assay: Anecdotal reports in patients with diabetic polyneuropathy after single doses of sildenafil; format: in vivo, human; conditions: single doses of 50 mg

melting point [°C]	Compound	degree of pain experienced [1]	painful symptoms [2]
162.8 to 163.6	CCCOc1ncc(C(C)=O)cc1-c1nc2c(CC)n(C3CN(C(C)C)C3)nc2c(=O)[nH]1 [Example 4, 5-(5-Acetyl-2-propoxy-3-pyridinyl)-3-ethyl-2-(1-isopropyl-3-azetidinyl)-2,6-dihydro-7H-pyrazolo[4,3-d]pyrimidin-7-one]		
	CCCc1nn(C)c2c(=O)[nH]c(-c3cc(S(=O)(=O)N4CCN(C)CC4)ccc3OCC)nc12 [sildenafil, 5-[2-ethoxy-5-(4-methyl-1-piperazinylsulphonyl)phenyl]-1-methyl-3-n-propyl-1,6-dihydro-7H-pyrazolo[4,3-d]pyrimidin-7-one]	reduction in the degree of pain experienced in a number of patients	improvement in painful symptoms

Reference: US20030162782A1, “Treatment of neuropathy” (priority 1999, published 2003)
